Several values for one entry are separate records, joined by “and”; a condition that tells them apart may be missing. Equal values may be shown once. Read-outs that look alike come from different tables or passages of the source.
Key:
[1] = test system: well-differentiated NET of non-pancreatic gastrointestinal or unknown origin; assay: FDG PET SUV change from baseline to day 15 of cycle 1; type: in vivo, human
Experimental: (§1) Metabolic changes were assessed by percent change in total of standardized uptake value (SUV) of 2-^18F-fluoro-2-deoxyglucose (FDG) with PET scanning from baseline to day 15 in cycle 1. Carcinoid symptoms of flushing and diarrhea were documented monthly with a non-validated symptom questionnaire that was completed at each study visit. Patients reported whether they had experienced specific events, and the severity and/or frequency of these events. Symptom improvement was defined as ≥50% reduction in frequency and/or a 1-grade reduction in severity for each from baseline.

[2] = test system: well-differentiated NET of non-pancreatic gastrointestinal or unknown origin; assay: Tumor response by investigator (RECIST version 1.1), PFS and OS; type: in vivo, human
Source text: Tumors were restaged by the principal investigator at each site using computed tomography (CT), positron emission tomography (PET)-CT, or magnetic resonance imaging scans after every 2 cycles through cycle 6, and every 3 cycles thereafter, using Response Evaluation Criteria In Solid Tumors (RECIST) version 1.1 criteria for response.
This phase 1/2 study was not powered for inferential statistics and mostly descriptive statistics were used. All patients dosed with CC-223 were included in the safety analysis. The efficacy analysis included all patients completing at least one cycle of drug who had both baseline and one post-baseline tumor efficacy assessment, unless otherwise specified. Categorical baseline variables including tumor type-specific characteristics were summarized using frequency counts and percentage. Continuous demographic and baseline characteristic variables were summarized by descriptive statistics. A Wilcoxon signed rank test was used to analyse change from baseline in serum hormone levels at selected scheduled visits.
Best overall tumor response by investigator assessment was summarized using frequency tabulation. Waterfall plots were used to show best percentage change from baseline in the sum of length (longest diameter) of target lesions.
Relationship between PFS and NET-specific assessments such as serum hormone levels and carcinoid symptoms were investigated. The Kaplan-Meier estimate of median PFS with its two-sided 95% confidence interval [CI] was provided for each baseline category of the selected biomarkers. Kaplan-Meier plots of PFS were created by category. The raw P value of the log rank test comparing survival distribution of PFS between categories was also provided.

[3] = test system: mTORC1 and mTORC2 biomarkers; assay: Target biomarker inhibition at 15 mg dose level (predicted, not tested); type: in vivo, human; settings: 15 mg dose level
[4] = test system: human carcinoid xenografts that secrete serotonin; set-up: method as in PMID 28864682; settings: mice bearing human carcinoid xenografts; cited from earlier work
[5] = 28-day GLP toxicology study, rat; type: in vivo
Experimental: (§2) A dose of 7.5 mg/day is proposed as the starting dose in this protocol. This dose is based on the recommendations in the March 2010 FDA Guidance for Industry entitled, “S9 Nonclinical Evaluation for Anticancer Pharmaceuticals,” where a start dose for first administration in humans should be either one-tenth the STD10 in rodents, or one-sixth of the HNSTD if the nonrodent is the most appropriate species. The conversion factors from the July 2005 FDA Guidance for Industry entitled, “Estimating the Maximum Safe Starting Dose in Initial Clinical Trials for Therapeutics in Adult Healthy Volunteers,” were used to convert the animal dose to the HED. The dose was converted to milligrams based on a 60-kg human body weight.
(§3) Species Animal Dose HED (mg/kg) HED (mg) Safety Factor Start Dose (mg) […]
(§4) Since the dog was identified as the most sensitive species in the 28-day GLP toxicology studies, the start dose for the study would be 8.2 mg/day. Based on available dosage strengths of the IP, a dose of 7.5 mg/day of CC-223 is deemed to be an acceptable starting dose for this initial trial in […]
(§5) Part B will consist of approximately 230 patients with selected tumor types to further assess the safety profile and provide preliminary efficacy information. […]

[6] = 28-day GLP toxicology study, dog; type: in vivo
Experimental: as §2, §3, §4, §5

[7] = Rat; trial protocol; cited from earlier work
[8] = test system: carcinoid symptoms of flushing and diarrhea; assay: Carcinoid symptom questionnaire (flushing, diarrhea); type: in vivo, human
Experimental: as §1

[9] = set-up: method as in PMID 26177599; settings: patients with advanced solid tumors; oral once daily; cited from earlier work
[10] = set-up: method as in doi:10.1200/jco.2013.31.15_suppl.2606; settings: non-small cell lung cancer and hepatocellular carcinoma cohorts dosed at 45 mg; cited from earlier work
[11] = Plasma pharmacokinetics of CC-223 and metabolite M1 in patients with NET; type: in vivo, human; settings: for CL/F / AUC / AUC(0-t) / Cmax / Vd/F: geometric mean (%CV, n); for Tmax / AUC / AUC(0-t) / Cmax / Vd/F: human, plasma; for Vd/F: read-out: Vz/F
Experimental: Blood for PK analysis was drawn on day 1 pre-dose and for up to 48 hours post-dose, and then on day 15 up to 8 hours post-dose. Urine on day 1 was collected within 30 minutes prior to dosing and at intervals up to 24 hours post-dose. Samples were assayed for CC-223 and the principal active metabolite (M1) using validated chiral liquid chromatography mass spectrometry. CC-223 PK parameters were calculated using dosing and sample collection times. Non-compartmental PK analysis was performed used WinNonlin Enterprise version 5.2 Model 200 and Model 210 (Certara, Princeton, NJ).

[12] = Dog; trial protocol; cited from earlier work
[13] = po, 30 mg/day, CC-223 30 mg/day oral, Day 1
[14] = po, 30 mg/day, CC-223 30 mg/day oral, Day 15, n = 1
[15] = po, 45 mg/day, CC-223 45 mg/day oral, Day 1

In the case of CO[C@H]1CC[C@H](N2C(=O)CNc3ncc(-c4ccc(C(C)(C)O)nc4)nc32)CC1 [CC-223], the “Patients with at least a 25% reduction in SUV” value ([1]; 18 patients) is reported as 38.3%, the “Patients with at least a 15% reduction in FDG uptake” value ([1]; 21 patients) is reported as 44.7% and the “Mean percent decrease from baseline to day 15 in [18F]-FDG PET SUV” value ([1]; 31 patients, standard deviation 35.2%, P<0.0001) is reported as 32.0%. The “Progressive disease (PD)” value ([2]; 1 of 41 evaluable patients, investigator assessment) was 2.4%, the “Partial response (PR)” value ([2]; 3 of 41 evaluable patients, investigator assessment) was 7% and 7.3% and the “Objective response rate (CR+PR)” value ([2]; 41 evaluable patients, 95% CI 1.5–19.9%) was 7.3%. For the same compound, the “Disease control rate (CR+PR+SD)” value ([2]; 41 evaluable patients, 95% CI 76.9–97.3%) was 90% and 90.2%, the “Complete response (CR)” value ([2]; 41 evaluable patients, investigator assessment) was “no patient” and the “Patients with tumor shrinkage of any magnitude relative to baseline” value ([2]; 95% CI 57.1–85.8%) was 73.2%. The “Median PFS in patients without carcinoid symptom improvement” value ([2]; ad hoc exploratory analysis, 95% CI 35.6–104.4) was 48.1 weeks and 48 weeks, the “Median PFS in patients with carcinoid symptom improvement” value ([2]; ad hoc exploratory analysis, 95% CI 72.6–not estimable) was 108.4 weeks and 108 weeks and the PFS rate ([2]; at 6 months) was 85%. For the same compound, the PFS rate ([2]; at 10 months) was 64%, the OS rate ([2]; at 48 weeks) was 0.97 and the “Duration of SD (min–max)” value ([2]; in vivo) was 50 to 1519 days. For the same compound, the “Median duration of SD” value ([2]; in vivo) was 297 days, the “Patients with duration of SD longer than a year” value ([2]; in vivo) was 17 patients and the “Median OS” value ([2]; treated population) was “not assessable”. For the same compound, the “Median progression-free survival (PFS)” value ([2]; treated population, 95% CI 10.4–28.5 months) was 19.5 months, the Target biomarker inhibition [3] was “modest” and the “Volume of tumors that progressed on rapamycin, after treatment” value [4] was “remained stable or decreased in volume from baseline”. For the same compound, the “HED (human equivalent dose) of STD10” value ([5]; 60-kg human body weight) was 96 mg, the “HED (human equivalent dose) of STD10” value ([5]; FDA conversion factors) was 1.6 mg/kg and the “HED (human equivalent dose) of HNSTD” value ([6]; 60-kg human body weight) was 49 mg. The “HED (human equivalent dose) of HNSTD” value ([6]; FDA conversion factors) was 0.81 mg/kg, the “STD10 (severely toxic dose in 10% of the animals tested)” value [7] was 10 mg/kg and the “Symptom reduction at any time during the study: both flushing and diarrhea” value ([8]; 5 of 13 affected patients) was 39%. The “Symptom reduction at any time during the study: flushing” value ([8]; 8 of 16 affected patients) was 50%, the “Symptom reduction at any time during the study: diarrhea” value ([8]; 9 of 22 affected patients) was 41% and the “Maximum tolerated dose (MTD)” value [9] was 45 mg/day. The “Patients with dose reductions” value [10] was over 50%, the CL/F ([11]; CC-223 30 mg/day oral, Day 1) was 34.0 (34.2, n = 3) L/h and the CL/F ([11]; CC-223 45 mg/day oral, Day 1) was 19.8 (20.1, n = 2) L/h. For the same compound, the Tmax ([11]; oral, regardless of starting dose, read-out: Median Tmax) was 1.5 to 3 h, the AUC [11, 13] was 819 ng·h/mL and the AUC(0-t) [11, 13] was 840 ng·h/mL. The Cmax [11, 13] was 133 ng/mL, the AUC [11, 14] was 776 ng·h/mL and the AUC(0-t) [11, 14] was 776 ng·h/mL. For the same compound, the Cmax [11, 14] was 154 ng/mL, the Tmax ([11]; po, 30 mg/day, median (min, max, n), CC-223 30 mg/day oral, Day 1, read-out: Tmax) was 1.7 h and the Tmax ([11]; po, 30 mg/day, median (min, max, n), CC-223 30 mg/day oral, Day 15, read-out: Tmax) was 1.5 h. For the same compound, the AUC(0-t) [11, 15] was 1800 ng·h/mL, the Cmax [11, 15] was 347 ng/mL and the AUC ([11]; po, 45 mg/day, CC-223 45 mg/day oral, Day 1, n = 1) was 1940 ng·h/mL. For the same compound, the Tmax ([11]; po, 45 mg/day, median (min, max, n), CC-223 45 mg/day oral, Day 1, read-out: Tmax) was 1.52 h, the Vd/F ([11]; CC-223 30 mg/day oral, Day 1) was 290 L and the Vd/F ([11]; CC-223 45 mg/day oral, Day 1) was 125 L. For the same compound, the “HNSTD (highest non-severely toxic dose)” value [12] was 1.5 mg/kg.
